Assays:
Experiment in all cases: relative viability (nuclei count vs DMSO), 5 days (fraction); higher = more cells survive
[1] = compound: C[C@@H](C(=O)N[C@@H](C1CCCCC1)C(=O)N2CCC[C@H]2C(=O)N[C@@H]3[C@@H](CC4=CC=CC=C34)OCC#CC#CCO[C@@H]5CC6=CC=CC=C6[C@@H]5NC(=O)[C@@H]7CCCN7C(=O)[C@H](C8CCCCC8)NC(=O)[C@H](C)NC)NC [AZD5582] + O=C(c1cc(Cc2n[nH]c(=O)c3ccccc23)ccc1F)N1CCN(C(=O)C2CC2)CC1 [Olaparib] (partner 8 µM)
Summary of the method: (§1)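 Lung cancer cell lines in 1536-well plates were dosed by pin tool the day after seeding, either with one drug alone or with a fixed anchor-drug dose plus five library-drug doses (not always all listed) in √10 steps. After 5 days, cells were fixed and their nuclei stained in one step (final 0.05% Triton X-100, 1% formaldehyde, 1 ug/ml Hoechst), then counted on 4× images. Relative viability is the nuclei count in treated wells divided by that in vehicle wells. Values are medians of duplicate plates.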

[2] = compound: Cn1nnc2c(C(N)=O)ncn2c1=O [Temozolomide] + COc1cccc2cc(-c3nc([C@H]4CC[C@H](C(=O)O)CC4)n4ncnc(N)c34)[nH]c12 [OSI-027] (partner 0.5 µM)
Summary of the method: as §1

[3] = compound: Cn1nnc2c(C(N)=O)ncn2c1=O [Temozolomide] + CC(=O)Nc1cccc(-n2c(=O)n(C3CC3)c(=O)c3c(Nc4ccc(I)cc4F)n(C)c(=O)c(C)c32)c1 [Trametinib] (partner 0.02 µM)
Summary of the method: as §1

[4] = compound: Cn1nnc2c(C(N)=O)ncn2c1=O [Temozolomide] + C[C@@H](Oc1cc(-c2cnn(C3CCNCC3)c2)cnc1N)c1c(Cl)ccc(F)c1Cl [Crizotinib] (partner 1 µM)
Summary of the method: as §1

| Cell Line | relative viability ([1]; first compound 0.001581 µM) | relative viability ([1]; first compound 0.005 µM) | relative viability ([1]; first compound 0.01581 µM) | relative viability ([1]; first compound 0.05 µM) | relative viability ([2]; first compound 0.2 µM) | relative viability ([2]; first compound 0.6325 µM) | relative viability ([2]; first compound 2 µM) | relative viability ([2]; first compound 6.325 µM) | relative viability ([2]; first compound 20 µM) | relative viability ([3]; first compound 0.2 µM) | relative viability ([3]; first compound 0.6325 µM) | relative viability ([3]; first compound 2 µM) | relative viability ([3]; first compound 6.325 µM) | relative viability ([3]; first compound 20 µM) | relative viability ([4]; first compound 0.2 µM) | relative viability ([4]; first compound 0.6325 µM) | relative viability ([4]; first compound 2 µM) | relative viability ([4]; first compound 6.325 µM) | relative viability ([4]; first compound 20 µM) |
| --- | --- | --- | --- | --- | --- | --- | --- | --- | --- | --- | --- | --- | --- | --- | --- | --- | --- | --- | --- |
| LCLC-97TM1 | 0.38 | 0.319 | 0.366 | 0.272 | 0.554 | 0.525 | 0.571 | 0.486 | 0.524 | 0.222 | 0.161 | 0.234 | 0.199 | 0.173 | 0.344 | 0.237 | 0.342 | 0.33 | 0.375 |
| NCI-H1734 | 0.569 | 0.59 | 0.615 | 0.746 | 0.685 | 0.562 | 0.667 | 0.578 | 0.649 | 0.722 | 0.694 | 0.661 | 0.678 | 0.692 | 0.707 | 0.704 | 0.684 | 0.647 | 0.656 |
| NCI-H2126 | 0.897 | 0.868 | 0.861 | 0.745 | 0.686 | 0.781 | 0.85 | 1.12 | 0.717 | 0.561 | 0.588 | 0.624 | 0.555 | 0.623 | 1.05 | 0.984 | 0.974 | 1.07 | 1.05 |
| PC-3 [JPC-3] | 0.914 | 0.855 | 1.09 | 0.536 | 0.738 | 0.78 | 0.843 | 0.749 | 0.269 | 0.547 | 0.769 | 0.821 | 0.724 | 0.433 | 0.993 | 0.951 | 1.03 | 0.974 | 0.458 |
| NCI-H1993 | 0.982 | 1.16 | 1.06 | 1.12 | 0.522 | 0.556 | 0.536 | 0.535 | 0.621 | 0.429 | 0.61 | 0.473 | 0.455 | 0.552 | 0.779 | 0.85 | 0.876 | 0.94 | 0.703 |
| NCI-H2087 | 0.442 | 0.604 | 0.607 | 0.719 | 0.628 | 0.565 | 0.634 | 0.464 | 0.612 | 0.209 | 0.213 | 0.255 | 0.204 | 0.172 | 0.898 | 0.74 | 0.892 | 0.803 | 0.871 |
| HOP-62 | 0.234 | 0.287 | 0.252 | 0.232 | 1.06 | 0.854 | 0.846 | 0.773 | 0.908 | 0.395 | 0.445 | 0.399 | 0.424 | 0.367 | 1.12 | 0.991 | 1.05 | 0.801 | 0.965 |
| HCC-15 | 0.615 | 0.624 | 0.622 | 0.598 | 0.778 | 0.68 | 0.683 | 0.695 | 0.669 | 0.38 | 0.392 | 0.417 | 0.318 | 0.385 | 0.872 | 0.918 | 0.807 | 0.805 | 0.905 |
| NCI-H2405 | 0.83 | 0.875 | 0.833 | 0.842 | 0.569 | 0.618 | 0.646 | 0.619 | 0.654 | 0.585 | 0.699 | 0.798 | 0.569 | 0.597 | 0.882 | 0.863 | 0.955 | 0.771 | 0.822 |
| COR-L 105 | 0.619 | 0.673 | 0.729 | 0.732 | 0.476 | 0.781 | 0.735 | 0.742 | 0.303 | 0.425 | 0.42 | 0.395 | 0.431 | 0.402 | 0.739 | 0.913 | 0.827 | 0.787 | 0.841 |
| PC-14 | 0.183 | 0.148 | 0.306 | 0.136 | 1.12 | 0.811 | 0.855 | 0.741 | 0.159 | 0.96 | 0.766 | 0.758 | 0.813 | 0.585 | 0.954 | 0.902 | 0.829 | 0.812 | 0.732 |
| NCI-H1975 | 0.862 | 1.06 | 0.764 | 0.951 | 0.888 | 0.683 | 0.852 | 0.731 | 0.804 | 0.339 | 0.31 | 0.371 | 0.373 | 0.413 | 1.02 | 0.948 | 1.06 | 0.92 | 0.956 |
| LCLC-103H | 0.806 | 0.836 | 0.714 | 0.862 | 0.454 | 0.416 | 0.481 | 0.448 | 0.485 | 0.725 | 0.624 | 0.686 | 0.678 | 0.617 | 1.03 | 1.04 | 1.08 | 1.05 | 1.05 |
| NCI-H2228 | 0.629 | 0.61 | 0.618 | 0.333 | 0.557 | 0.56 | 0.602 | 0.583 | 0.727 | 0.286 | 0.617 | 0.432 | 0.459 | 0.537 | 0.529 | 0.536 | 0.466 | 0.399 | 0.369 |
| NCI-H661 | 0.7 | 0.758 | 0.787 | 0.737 | 0.534 | 0.759 | 0.737 | 0.716 | 0.55 | 0.513 | 0.564 | 0.654 | 0.528 | 0.562 | 0.828 | 0.93 | 0.942 | 0.944 | 1.02 |
| NCI-H460 | 0.36 | 0.411 | 0.345 | 0.413 | 0.853 | 0.688 | 0.761 | 0.682 | 0.656 | 0.136 | 0.236 | 0.158 | 0.0735 | 0.134 | 0.963 | 0.784 | 0.973 | 0.861 | 0.888 |

From the supplement of paper PMC10307832
